In patent US11401295B2, “Cyclic dinucleotide compound and uses thereof” (SHANGHAI JEMINCARE PHARMACEUTICALS CO., LTD., priority 2018, dated 2022):
pEC50: −log10 of the molar value. Where two headings read alike, the source gives them in different places.

Tests used:
[1] = test system: IRF3 pathway in RAW-Dual cells (RAW264.7); test: Raw-Dual reporter gene activity assay (luciferase, QUANTI-Luc); type: cell-based, mouse
Procedure: The RAW-Dual™ cells used in the test (InvivoGen catalog code: rawd-ismip) were constructed by stably integrating two inducible reporter genes in mouse macrophage cell line RAW264.7. The NF-KB pathway was studied by detecting SEAP activity and the IRF3 pathway was studied by evaluating the activity of luciferase. […] On the second day, the culture medium was discarded, and 200 μL of compound solution prepared in advance with the culture medium was added into each well followed by incubation at room temperature for 30 minutes. After the treatment medium was sucked out, it was washed twice with serum-free culture medium, and 200 μL of culture medium was added into each well, followed by incubation in an incubator at 37° C. for 18-24 hours. On the third day, 20 μL of supernatant was collected per well and QUANTI-Luc™ was used to quantify the activation of IRF3 pathway according to the manufacturer's instructions.

[2] = test system: IRF3 pathway in THP1-Dual cells; test: THP1-Dual reporter gene activity assay (Lucia luciferase, QUANTI-Luc); type: cell-based, human
Text: THP1-Dual™ cells (InvivoGen catalog code: thpd-nfis) used in the test were constructed by stably integrating two inducible reporter genes into the human monocyte cell line THP1. The promoter sequence composition of the secretory embryonic alkaline phosphatase (SEAP) reporter gene consists of an IFN-β primary promoter and five copies of the upstream NF-κB co-expression transcriptional response element and three copies of the c-Rel binding site. The secretory luciferase (Lucia) reporter gene is driven by five interferon (IFN)-stimulated response elements and a basic promoter of ISG54. This made it possible to study simultaneously the two major downstream signaling pathways of STING: the NF κB pathway by detecting SEAP activity: and the IRF pathway by evaluating the activity of Lucia luciferase.
The compounds were diluted with PB buffer (50 mM HEPES, 100 mM KCl, 3 mM MgCl2, 0.1 mM DTT, 85 mM Sucrose, 1 mM ATP, 0.1 mM GTP, 0.20% BSA). 20 μL of the reference or tested compound was added to each well in a 96-well plate, followed by 180 μL of THP1-Dual cells (approximately 100,000 cells/well) suspended in PB buffer. The plate was incubated for 30 minutes at 37° C. under […], and centrifuged at 1000 rpm for 10 minutes. The supernatant was discarded. […] The supernatants were collected and QUANTI-Luc™ was used to quantify the activation of the IRF3 pathway according to the manufacturer's instructions.

[3] = Mus musculus, RAW264.7, read-out: Raw, EC50
[4] = THP1-Dual cells, IRF3 pathway (Lucia), 30 min treatment, 18 hours incubation, read-out: EC50

Structure (SMILES) | pEC50 [1, 3] | pEC50 [2] | pEC50 ([1]; read-out: Raw, EC50) | further results
BP1(=O)OC[C@H]2O[C@@H](n3cnc4c(N)ncnc43)C(O)[C@H]2OP(=O)(S)OC[C@H]2O[C@@H](n3cnc4c(N)ncnc43)C(F)[C@H]2O1 (single isomer, unassigned) [Compound 1C] | 4.38 | 4.78 | – | –
BP1(=O)OC[C@H]2O[C@@H](n3cnc4c(N)ncnc43)C(O)[C@H]2OP(=O)(S)OC[C@H]2O[C@@H](n3cnc4c(N)ncnc43)C(F)[C@H]2O1 (single isomer, unassigned) [Compound 1D] | – | 5.13 | 4.61 | –
BP1(=O)OC[C@H]2O[C@@H](n3cnc4c(N)ncnc43)[C@@H](F)C2OP(B)(=O)OC[C@H]2O[C@@H](n3cc(F)c4c(=O)[nH]cnc43)[C@@H](O)C2O1 (single isomer, unassigned) [Compound 3B] | – | – | – | pEC50 ([2]; Homo sapiens, THP1-Dual): 4.37
BP1(=O)OC[C@H]2O[C@@H](n3cnc4c(N)ncnc43)[C@@H](F)C2OP(B)(=O)OC[C@H]2O[C@@H](n3cc(F)c4c(=O)[nH]cnc43)[C@@H](O)C2O1 (single isomer, unassigned) [Compound 3C] | 5.03 | 4.33 | – | –
BP1(=O)OC[C@H]2O[C@@H](n3cnc4c(N)ncnc43)[C@@H](F)C2OP(B)(=O)OC[C@H]2O[C@@H](n3cc(F)c4c(=O)[nH]cnc43)[C@@H](O)C2O1 (single isomer, unassigned) [Compound 3D] | – | 4.58 | 5.00 | –
BP1(=O)OC[C@@]23COC([C@H](n4cnc5c(N)ncnc54)O2)[C@H]3OP(B)(=O)OC[C@H]2O[C@@H](n3cnc4c(N)ncnc43)[C@@H](F)C2O1 (single isomer, unassigned) [Compound 5A] | – | 5.21 | – | –
BP1(=O)OC[C@@]23COC([C@H](n4cnc5c(N)ncnc54)O2)[C@H]3OP(B)(=O)OC[C@H]2O[C@@H](n3cnc4c(N)ncnc43)[C@@H](F)C2O1 (single isomer, unassigned) [Compound 5B] | 4.26 | – | – | pEC50 ([2]; Homo sapiens, THP1-Dual): 4.94
BP1(=O)OC[C@@]23COC([C@H](n4cnc5c(N)ncnc54)O2)[C@H]3OP(B)(=O)OC[C@H]2O[C@@H](n3cnc4c(N)ncnc43)[C@@H](F)C2O1 (single isomer, unassigned) [Compound 5C] | – | – | 4.55 | –
BP1(=O)OC[C@@]23COC([C@H](n4cnc5c(N)ncnc54)O2)[C@H]3OP(B)(=O)OC[C@H]2O[C@@H](n3cnc4c(N)ncnc43)[C@@H](F)C2O1 (single isomer, unassigned) [Compound 5D] | 4.50 | 4.90 | – | –
BP1(=O)OC[C@H]2O[C@@H](n3cc(F)c4c(=O)[nH]cnc43)[C@@H](F)C2OP(B)(=O)OC[C@H]2O[C@@H](n3cnc4c(N)ncnc43)[C@@H](F)C2O1 (single isomer, unassigned) [Compound 6A] | – | 5.87 | – | –
BP1(=O)OC[C@H]2O[C@@H](n3cc(F)c4c(=O)[nH]cnc43)[C@@H](F)C2OP(B)(=O)OC[C@H]2O[C@@H](n3cnc4c(N)ncnc43)[C@@H](F)C2O1 (single isomer, unassigned) [Compound 6B] | – | 5.03 | 5.27 | –
BP1(=O)OC[C@H]2O[C@@H](n3cc(F)c4c(=O)[nH]cnc43)[C@@H](F)C2OP(B)(=O)OC[C@H]2O[C@@H](n3cnc4c(N)ncnc43)[C@@H](F)C2O1 (single isomer, unassigned) [Compound 6C] | – | 5.64 | 5.96 | –
BP1(=O)OC[C@H]2O[C@@H](n3cc(F)c4c(=O)[nH]cnc43)[C@@H](F)C2OP(B)(=O)OC[C@H]2O[C@@H](n3cnc4c(N)ncnc43)[C@@H](F)C2O1 (single isomer, unassigned) [Compound 6D] | – | 4.91 | 5.02 | –
Nc1nc2c(ncn2[C@@H]2O[C@@H]3COP(=O)(O)O[C@H]4[C@@H](O)[C@H](n5cnc6c(N)ncnc65)O[C@@H]4COP(=O)(O)O[C@@H]2[C@@H]3O)c(=O)[nH]1 [2′,3′-cGAMP, (2′ 3′) cyclic guanosine monophosphate-adenosine monophosphate, reference compound] | – | – | – | pEC50 [2, 4]: 4.69
Nc1ncnc2c1ncn2[C@@H]1O[C@@H]2COP(=O)(S)O[C@@H]3[C@H](O)[C@@H](COP(O)(=S)O[C@H]2[C@H]1O)O[C@H]3n1cnc2c(N)ncnc21 (stereo partly drawn) [ADU-S100, reference compound] | – | – | – | pEC50 ([1]; RAW-Dual cells, IRF3 pathway, 30 min treatment, 18-24 hours incubation, read-out: Raw, EC50): 4.33; pEC50 [2, 4]: 4.63
BP1(=O)OC[C@H]2O[C@@H](n3cnc4c(N)ncnc43)C(O)[C@H]2OP(=O)(S)OC[C@H]2O[C@@H](n3cnc4c(N)ncnc43)[C@@H](F)C2O1 (stereo partly drawn) [Compound 1A] | – | – | – | pEC50 ([2]; Homo sapiens, THP1-Dual): 4.13
BP1(=O)OC[C@H]2O[C@@H](n3cnc4c(N)ncnc43)C(O)[C@H]2OP(=O)(S)OC[C@H]2O[C@@H](n3cnc4c(N)ncnc43)C(F)[C@H]2O1 (stereo partly drawn) [Compound 1B] | 4.80 | – | – | pEC50 ([2]; Homo sapiens, THP1-Dual): 5.13
BP1(=O)OC[C@H]2O[C@@H](n3cnc4c(N)ncnc43)C(F)[C@H]2OP(B)(=O)OC[C@H]2O[C@@H](n3cnc4c(N)ncnc43)[C@@H](F)C2O1 (stereo partly drawn) [Compound 2A] | 4.63 | – | – | pEC50 ([2]; Homo sapiens, THP1-Dual): 5.76
